# Measured values from patent US20240083944A1 (priority 2021, published 2024).
# Starred links: 1 amine or outer side, 2 acyl side, 3 side chain; linkers in the order of their positions; H or OH if unused. Positions of bridges follow the written chain, without caps; N, C: chain ends. Non-standard residues stand in square brackets, D forms with d. Chains are numbered I, II in the order given. X2 = O=C(CCOCCN(CCOCCC(=O)NCCOCCOCCOCCOCCOCCOCCOCCOCCOCCOCCn1cc(CCC(=O)[*:2])nn1)CCOCCC(=O)NCCOCCOCCOCCOCCOCCOCCOCCOCCOCCOCCn1cc(CCC(=O)[*:3])nn1)NCCOCCOCCOCCOCCOCCOCCOCCOCCOCCOCCn1cc(CCC(=O)[*:1])nn1; X1 = C(c1nc(C[*:2])nc(C[*:3])n1)[*:1]; tBuAla = CC(C)(C)C[C@H](N)C(=O)O; Agb = N=C(N)NCC[C@H](N)C(=O)O
# Test system: SARS-CoV-2 pseudotyped HIV-1 virions, D614G
substance,measurement,value
"I: Ac-CPYVAG[Agb][dA]TCL[tBuAla]CK-NH2 / II: Ac-CPYVAG[Agb][dA]TCL[tBuAla]CK-NH2 / III: Ac-CPYVAG[Agb][dA]TCL[tBuAla]CK-NH2 (linker I:1-I:10-I:13, II:1-II:10-II:13, III:1-III:10-III:13 via X1; linker I:14-II:14-III:14 via X2) [BCY17021]",IC50,500 pM
